Laboratory results: patent US20170260169A1, “INHIBITORS FOR STEROID RESPONSE ELEMENTS AND RNA POLYMERASE II AND RELATED METHODS” (priority 2007, published 2017)

Experiments:
ARE of the PSA promoter = experiment: Quantitative DNase I footprint titration on pAR-PSA fragment; assay type: binding
Text: Plasmid pAR-PSA was constructed by inserting a 70-bp sequence from the PSA promoter containing the ARE into pUC19 plasmid. […] Detailed experimental protocols are reported elsewhere (44). The proximal PSA promoter contains the ARE [NT] ID NO:15) (FIG. 8A). […] However, 1 is observed to bind the sequence [NT]≈12 bp 5' to the ARE, which is an expected binding site for this molecule.

[1] = system: PSA mRNA expression in LNCaP cells; experiment: DHT-induced PSA mRNA in LNCaP cells, quantitative real-time RT-PCR; assay type: cell-based
Experimental: LNCaP cells (ATCC) were plated in 24-well plates at a density of 40-50×10^3 cells per well (80-100×10^3 cells per ml) in RPMI medium 1640 (ATCC) supplemented with 10% FBS (Irvine Scientific, Santa Ana, Calif.). After 72 h, the medium was replaced with RPMI medium 1640 containing 10% charcoal stripped FBS with or without polyamides at the designated concentrations. Cells were grown for an additional 48 h and then treated with 1 nM DHT for 16 h. When appropriate, bicalutamide was added 2 h before DHT stimulation. Isolation of RNA and cDNA synthesis was performed as described (21). Quantitative real-time RT-PCR was performed with SYBR Green PCR Master Mix (Applied Biosystems, Foster City, Calif.) on an ABI 7300 instrument. PSA mRNA was measured relative to β-glucuronidase as an endogenous control.

[2] = system: AR occupancy at the PSA promoter and enhancer; experiment: Chromatin immunoprecipitation with anti-AR, PSA promoter and enhancer; assay type: cell-based
Experimental: (§1) LNCaP cells were plated in 15-cm diameter plates at a density of 2×10^6 cells per plate. Media, polyamide treatment, time course, and DHT stimulation were the same as described above. After the 16-h DHT treatment, cells were treated with 1% formaldehyde for 10 min. Chromatin was isolated and sheared. Antibodies to AR (AR-20, Santa Cruz Biotechnology, Santa Cruz, Calif.) were used to immunoprecipitate AR-bound DNA fragments. Crosslinks were reversed, and PCRs using primers targeted to the regions of interest were used to assess enrichment of bound fragments as compared with mock-precipitated (no antibody) controls. PCRs were monitored with SYBR Green PCR Master Mix (Applied Biosystems) on an ABI 7300 instrument. Primer sequences and a more detailed experimental protocol are available upon request.

[3] = system: PSA mRNA expression in LNAR cells; experiment: PSA mRNA expression in LNAR cells (hormone refractory, over-express AR); assay type: cell-based
Text: The cell line LNAR was used, which has been engineered to over-express AR (14). LNAR cells over-express AR and form hormone refractory tumors when xenografted in mice (14).

[4] = system: GR occupancy at the GILZ enhancer; experiment: Chromatin immunoprecipitation with anti-GR, GILZ enhancer, A549 cells; assay type: cell-based
Experimental: as §1, with “A549” for “LNCaP”, “plates.” for “plates at a density of 2×10^6 cells per plate.”, “dexamethasone” for “the 16-h DHT”, “GR (graciously gifted by Keith Yamamoto)” for “AR (AR-20, Santa Cruz Biotechnology, Santa Cruz, Calif.)”, “GR-bound” for “AR-bound”

RPB1 mRNA = experiment: Quantitative RT-PCR of RPB1 transcript in LNCaP cells; assay type: cell-based; conditions: 10 μM
Experimental: RNA was extracted using RNEasy columns (Qiagen) according to manufacturer's protocols. cDNA was generated from RNA by reverse transcriptase (Transcriptor First Strand cDNA kit, Roche). Quantitative real-time RT-PCR was performed using SYBR Green PCR Master Mix (Applied Biosystems) on an ABI 7300 instrument. mRNA was measured relative to B glucuronidase as an endogenous control.

LNCaP cells = experiment: Cell viability WST-1 assay; assay type: cell-based; conditions: LNCaP
Experimental: LNCaP cells were plated in clear bottom 96 well plates at 5,000-7,500 cells per well. The cells were allowed to adhere for 24-36 h before compounds were added in fresh media. Cell viability was determined by the WST-1 assay (Roche) for 77 and 85 after 24 h or 72 h incubation with cells. Cells in cytotoxicity rescue experiments were treated with 85 alone or with 3 μM for 24 h.
LNCaP cells were plated in clear bottom 96-well plates at 5,000-7,500 cells per well and allowed to adhere for 36-48 h. Compounds were then added in fresh media. Cell metabolic activity was determined by the WST-1 assay (Roche) after 72-h incubation with cells. Quantification was performed on a Perkin Elmer Victor 3 plate reader. Assays were performed in biological triplicates.

LNCaP xenografts = LNCaP xenografts in male NSG mice; assay type: in vivo
Experimental: All mice experiments were conducted under an approved protocol by the Institutional Animal Care and Use Committee of the California Institute of Technology. Male NOD scid gamma (NSG) mice were purchased from The Jackson Laboratory. The animals were individually caged and maintained on a standard light-dark cycle. NSG mice were engrafted with LNCaP cells (2.5 million cells) in a mixture of 1:1 media and matrigel in the left flank. Tumors were grown to ˜100 mm^3 (L×W^2) before beginning treatment with compound or vehicle. Py-Im polyamide 77 was administered once every 3 days in a 5% DMSO:PBS vehicle solution until the experiment endpoint.
To investigate if polyamide 77 could be detected in peripheral blood after SC injections, 120 nmol of 77 (in 5% DMSO/PBS) was injected into the right flank of four C57BL/6 mice. Blood was collected from anesthetized mice via retroorbital collection at 5 minutes, 4 h, and 12 h after injection, then processed by methods previously described and analyzed by HPLC (35). For measurement of serum PSA (KLK3) and uric acid, blood was collected from anesthetized mice via retroorbital collection at experimental endpoint and serum was separated from blood by centrifugation. Serum PSA (KLK3) was measured by ELISA (R&D systems) according to manufacturer's instructions. Uric acid was measured as described (36).
Tumors were resected immediately after euthanasia and fixed in neutral buffered formalin. Selected samples were embedded in paraffin, sectioned and stained with hematoxylin and eosin (H&E). Selected sections were assessed by deoxynucleotidyltransferase dUTP nick-end labeling (TUNEL) as described (45).
Mice experiments were conducted under an approved protocol by the Institutional Animal Care and Use Committee of the California Institute of Technology. Male C57BL6/J mice and male NSG mice were purchased from The Jackson Laboratory. All animals were maintained on a standard light-dark cycle. LNCaP cells (2.5 million cells) were engrafted in a mixture of 1:1 media and matrigel in the left flank of NSG mice. Tumors were allowed grow to ˜200 mm^3 (0.5×L×W^2) before treatment. Py-Im polyamide 78 was administered by SC injection once every 3 d at 1 mg/kg in a 20% (vol/vol) DMSO:Normal saline vehicle solution for 6 injections. Animals were sacrificed two days after the final injection. Animal weight and general health were monitored daily. Fourteen animals were used for each treatment group.

[5] = system: transcripts in DHT-stimulated LNCaP cells; conditions: previous studies (12); cited from earlier work
[6] = 20 nmol SC every three days, three injections

CN(CCCNC(=O)c1cccc(C(=O)O)c1)CCCNC(=O)c1cc(NC(=O)c2cc(NC(=O)c3cc(NC(=O)c4nc(NC(=O)[C@H](N)CCNC(=O)c5cc(NC(=O)c6cc(NC(=O)c7cc(NC(=O)c8nccn8C)cn7C)cn6C)cn5C)cn4C)cn3C)cn2C)cn1C [Polyamide 1, ImPyPyPy-2-(R)H^2Nγ-ImPyPyPy-NHMe-IPA]
binding at the other half-site of the ARE (ARE of the PSA promoter; 5′-AGTGCT-3′, single base pair mismatch site): Minimal binding | Ka (ARE of the PSA promoter; ARE consensus half-site 5′-AGAACA-3′): 8.3±1.7×10^9 M^−1 | Ka (ARE of the PSA promoter; ARE half site 5′-AGAACA-3′, FIG. 8 legend): 8.3±1.7×10^9 | Kd (ARE of the PSA promoter; half-site of the ARE of the PSA promoter): subnanomolar | AR mRNA [1]: minimally affected | effects on cell growth ([1]; LNCaP, over the course of the experiment): no obvious detrimental effects on cell growth | occupancy of AR at the PSA promoter and enhancer ([2]; 1 μM as printed): decreased occupancy | AR occupancy at the PSA promoter and enhancer ([2]; 10 μM, FIG. 9 legend): decreased | effect on DHT-induced PSA mRNA expression in LNAR cells [3]: maintains efficacy | occupancy of GR at the GILZ enhancer ([4]; 1 μM as printed): decreased occupancy | GR occupancy at the GILZ enhancer ([4]; 10 μM, FIG. 17 legend): decreased | expression of RPB1 mRNA (RPB1 mRNA): modestly increased | cytotoxicity after 24 h treatment (LNCaP cells): minimal cytotoxicity is seen at 24 h | tumor weight, mean (LNCaP xenografts; [6]): 112 mg | tumor weight, median (LNCaP xenografts; [6]): 94 mg | tumor weight, range (LNCaP xenografts; [6]): 47 to 201 mg | body weight, LNCaP tumor-bearing NSG mice (LNCaP xenografts; 20 nmol, three injections): exhibited weight loss | distress and weight, tumor-free NSG mice (LNCaP xenografts; 20 nmol, three injections): no signs of distress or weight loss | reduction of tumor growth (LNCaP xenografts; after three rounds of treatment, vs vehicle): 64% | serum PSA post-treatment (LNCaP xenografts; compared to vehicle): lower | immunohistological analysis of tumors (LNCaP xenografts; mouse, in vivo): evidence of cell death by TUNEL stain | serum uric acid (LNCaP xenografts; tumor bearing mice, vs vehicle and non-tumor bearing treated mice): increases serum uric acid | share of DHT-induced transcripts affected [5]: approximately 30%
